Key:
cocklebur = assay: Test B preemergence/postemergence greenhouse plant response rating 0 to 10; format: in vivo, Xanthium pensylvanicum; details: 0 to 10 scale
Summary of the method: (§1)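 Test chemicals, dissolved in a non-phytotoxic solvent, were applied to soil at planting and, at the same time, over foliage of seedlings at the one to four leaf stage.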

sorghum = assay: as above; format: in vivo, Sorghum bicolor; details: 0 to 10 scale
Summary of the method: as §1

cotton = assay: as above; format: in vivo, Gossypium hirsutum; details: 0 to 10 scale
Summary of the method: as §1

wild oat = assay: as above; format: in vivo, Avena fatua; details: 0 to 10 scale
Summary of the method: as §1

blackgrass = assay: Test C preemergence/postemergence greenhouse plant response rating 0 to 100; format: in vivo, Alopecurus myosuroides; details: for Plant response rating, Blackgrass: 62 g/ha, 0 to 100 scale
Description: (§2) The compounds evaluated in this test were formulated in a non-phytoxic solvent and applied to the soil surface before plant seedlings emerged (preemergence application), to water that covered the soil surface (flood application), and to plants that were in the one-to-four leaf stage (postemergence application). A sandy loam soil was used for the preemergence and postemergence tests, while a silt loam soil was used in the flood test. Water depth was approximately 2.5 cm for the flood test and was maintained at this level for the duration of the test. Plant species in the preemergence and postemergence tests consisted of barley (Hordeum vulgare), bedstraw (Galium aparine), blackgrass (Alopecurus myosuroides), chickweed (Stellaria media), corn (Zea mays), cotton (Gossypium hirsutum), crabgrass (Digitaria sanguinalis), downy brome (Bromus tectorum), giant foxtail (Setaria faberii), lambsquarters (Chenopodium album), morningglory (Ipomoea hederacea), pigweed ([…]), rape (Brassica napus), ryegrass (Lolium multiflorum), sorghum (Sorghum bicolor), soybean (Glycine max), speedwell (Veronica persica), sugar beet (Beta vulgaris), velvetleaf (Abutilon theophrasti), wheat (Triticum aestivum), wild buckwheat (Polygonum convolvulus), and wild oat (Avena fatua). All plant species were planted one day before application of the compound for the preemergence portion-of this test. Plantings of these species were adjusted to produce plants of appropriate size for the post-emergence portion of the test. […] All plant species were grown using normal greenhouse practices. Visual evaluations of injury expressed on treated plants, when compared to untreated controls, were recorded approximately fourteen to twenty one days after application of the test compound. […] A dash (-) response means no test result.

umbrella sedge = assay: Test C flood test plant response rating 0 to 100; format: in vivo, Cyperus difformis
Description: as §2

rape = assay: Test C preemergence/postemergence greenhouse plant response rating 0 to 100; format: in vivo, Brassica napus; details: for Plant response rating, Rape: 62 g/ha, 0 to 100 scale
Description: as §2

barnyardgrass = assay: Test B preemergence/postemergence greenhouse plant response rating 0 to 10; format: in vivo, Echinochloa crus-galli; details: 0 to 10 scale
Summary of the method: as §1

rice [1] = assay: as above; format: in vivo, Oryza sativa; details: 0 to 10 scale
Summary of the method: as §1

morningglory = assay: as above; format: in vivo, Ipomoea hederacea; details: 0 to 10 scale
Summary of the method: as §1

rice [2] = assay: Test C flood test plant response rating 0 to 100; format: in vivo, Oryza sativa
Description: as §2

crabgrass = assay: Test C preemergence/postemergence greenhouse plant response rating 0 to 100; format: in vivo, Digitaria sanguinalis; details: for Plant response rating, Crabgrass: 62 g/ha, 0 to 100 scale
Description: as §2

wheat = assay: Test B preemergence/postemergence greenhouse plant response rating 0 to 10; format: in vivo, Triticum aestivum; details: 0 to 10 scale
Summary of the method: as §1

[3] = POSTEMERGENCE section, flood test, Rate 1 g/ha
[4] = POSTEMERGENCE section, flood test, Rate 4 g/ha
[5] = Rate 16 g/ha, under POSTEMERGENCE head (flood test species)
[6] = flood test species listed under POSTEMERGENCE, 62 g/ha, 0 to 100 scale

SMILES: CC(C)Oc1cc(-c2nn3c(c2Br)CCCC3)c(F)cc1Cl [Compound 38]
- Plant response rating, Cocklebur (cocklebur; POSTEMERGENCE, Rate 50 g/ha): 8
- Plant response rating, Cocklebur (cocklebur; POSTEMERGENCE, Rate 200 g/ha): 10
- Plant response rating, Cocklebur (cocklebur; PREEMERGENCE, Rate 50 g/ha): 0
- Plant response rating, Cocklebur (cocklebur; Rate 200 g/ha, PREEMERGENCE): 5
- Plant response rating, Sorghum (sorghum; POSTEMERGENCE, Rate 50 g/ha): 5
- Plant response rating, Sorghum (sorghum; PREEMERGENCE, Rate 50 g/ha): 0
- Plant response rating, Sorghum (sorghum; Rate 200 g/ha, POSTEMERGENCE): 6
- Plant response rating, Sorghum (sorghum; Rate 200 g/ha, PREEMERGENCE): 1
- Plant response rating, Cotton (cotton; POSTEMERGENCE, Rate 50 g/ha): 9
- Plant response rating, Cotton (cotton; POSTEMERGENCE, Rate 200 g/ha): 10
- Plant response rating, Cotton (cotton; PREEMERGENCE, Rate 50 g/ha): 0
- Plant response rating, Cotton (cotton; Rate 200 g/ha, PREEMERGENCE): 9
- Plant response rating, Wild oat (wild oat; POSTEMERGENCE, Rate 50 g/ha): 3
- Plant response rating, Wild oat (wild oat; PREEMERGENCE, Rate 50 g/ha): 0
- Plant response rating, Wild oat (wild oat; Rate 200 g/ha, POSTEMERGENCE): 5
- Plant response rating, Blackgrass (blackgrass; POSTEMERGENCE): 40
- Plant response rating (0 to 100), Blackgrass (blackgrass; POSTEMERGENCE, Rate 1 g/ha): 10
- Plant response rating, Blackgrass (blackgrass; PREEMERGENCE): 30
- Plant response rating (0 to 100), Blackgrass (blackgrass; PREEMERGENCE, Rate 1 g/ha): 0
- Plant response rating (0 to 100), Blackgrass (blackgrass; PREEMERGENCE, Rate 4 g/ha): 0
- Plant response rating (0 to 100), Blackgrass (blackgrass; Rate 4 g/ha, POSTEMERGENCE): 10
- Plant response rating (0 to 100), Blackgrass (blackgrass; Rate 16 g/ha, POSTEMERGENCE): 20
- Plant response rating (0 to 100), Blackgrass (blackgrass; Rate 16 g/ha, PREEMERGENCE): 0
- Plant response rating (0 to 100), Umbrella sedge (umbrella sedge; [3]): 0
- Plant response rating (0 to 100), Umbrella sedge (umbrella sedge; [4]): 0
- Plant response rating (0 to 100), Umbrella sedge (umbrella sedge; [5]): 20
- Plant response rating Umbrella sedge (umbrella sedge; [6]): 50
- Plant response rating, Rape (rape; POSTEMERGENCE): 80
- Plant response rating (0 to 100), Rape (rape; POSTEMERGENCE, Rate 1 g/ha): 20
- Plant response rating (0 to 100), Rape (rape; POSTEMERGENCE, Rate 4 g/ha): 30
- Plant response rating, Rape (rape; PREEMERGENCE): 30
- Plant response rating (0 to 100), Rape (rape; PREEMERGENCE, Rate 1 g/ha): 0
- Plant response rating (0 to 100), Rape (rape; PREEMERGENCE, Rate 4 g/ha): 10
- Plant response rating (0 to 100), Rape (rape; Rate 16 g/ha, POSTEMERGENCE): 40
- Plant response rating (0 to 100), Rape (rape; Rate 16 g/ha, PREEMERGENCE): 20
- Plant response rating, Barnyardgrass (barnyardgrass; POSTEMERGENCE, Rate 50 g/ha): 6
- Plant response rating, Barnyardgrass (barnyardgrass; POSTEMERGENCE, Rate 200 g/ha): 8
- Plant response rating, Barnyardgrass (barnyardgrass; PREEMERGENCE, Rate 50 g/ha): 0
- Plant response rating, Barnyardgrass (barnyardgrass; Rate 200 g/ha, PREEMERGENCE): 1
- Plant response rating, Rice (rice [1]; POSTEMERGENCE, Rate 50 g/ha): 5
- Plant response rating, Rice (rice [1]; PREEMERGENCE, Rate 50 g/ha): 0
- Plant response rating, Rice (rice [1]; Rate 200 g/ha, POSTEMERGENCE): 6
- Plant response rating, Rice (rice [1]; Rate 200 g/ha, PREEMERGENCE): 2
- Plant response rating, Morningglory (morningglory; POSTEMERGENCE, Rate 50 g/ha): 8
- Plant response rating, Morningglory (morningglory; PREEMERGENCE, Rate 50 g/ha): 0
- Plant response rating, Morningglory (morningglory; Rate 200 g/ha, POSTEMERGENCE): 9
- Plant response rating, Morningglory (morningglory; Rate 200 g/ha, PREEMERGENCE): 4
- Plant response rating (0 to 100), Rice Japonica (rice [2]; [3]): 0
- Plant response rating (0 to 100), Rice Japonica (rice [2]; [4]): 10
- Plant response rating (0 to 100), Rice Japonica (rice [2]; [5]): 10
- Plant response rating Rice Japonica (rice [2]; [6]): 30
- Plant response rating, Crabgrass (crabgrass; POSTEMERGENCE): 40
- Plant response rating (0 to 100), Crabgrass (crabgrass; POSTEMERGENCE, Rate 1 g/ha): 10
- Plant response rating (0 to 100), Crabgrass (crabgrass; POSTEMERGENCE, Rate 4 g/ha): 20
- Plant response rating, Crabgrass (crabgrass; PREEMERGENCE): 30
- Plant response rating (0 to 100), Crabgrass (crabgrass; PREEMERGENCE, Rate 1 g/ha): 0
- Plant response rating (0 to 100), Crabgrass (crabgrass; PREEMERGENCE, Rate 4 g/ha): 0
- Plant response rating (0 to 100), Crabgrass (crabgrass; Rate 16 g/ha, POSTEMERGENCE): 30
- Plant response rating (0 to 100), Crabgrass (crabgrass; Rate 16 g/ha, PREEMERGENCE): 10
- Plant response rating, Wheat (wheat; POSTEMERGENCE, Rate 50 g/ha): 4
- Plant response rating, Wheat (wheat; PREEMERGENCE, Rate 50 g/ha): 0
- Plant response rating, Wheat (wheat; Rate 200 g/ha, POSTEMERGENCE): 6
- Plant response rating, Wheat (wheat; Rate 200 g/ha, PREEMERGENCE): 2
